Assay results published in US20230074252A1, “DOSAGES AND METHODS FOR TREATING PULMONARY ARTERIAL HYPERTENSION WITH RODATRISTAT” (Altavant Sciences GmbH, priority 2020, published 2023).

Columns and labels:
Type in all cases: in vitro ADME
[1] = molecular target: T1, CYP2C8 (Homo sapiens, UniProt P10632); assay: In vitro CYP substrate assessment (victim potential)
T1 sequence (P10632 1-490): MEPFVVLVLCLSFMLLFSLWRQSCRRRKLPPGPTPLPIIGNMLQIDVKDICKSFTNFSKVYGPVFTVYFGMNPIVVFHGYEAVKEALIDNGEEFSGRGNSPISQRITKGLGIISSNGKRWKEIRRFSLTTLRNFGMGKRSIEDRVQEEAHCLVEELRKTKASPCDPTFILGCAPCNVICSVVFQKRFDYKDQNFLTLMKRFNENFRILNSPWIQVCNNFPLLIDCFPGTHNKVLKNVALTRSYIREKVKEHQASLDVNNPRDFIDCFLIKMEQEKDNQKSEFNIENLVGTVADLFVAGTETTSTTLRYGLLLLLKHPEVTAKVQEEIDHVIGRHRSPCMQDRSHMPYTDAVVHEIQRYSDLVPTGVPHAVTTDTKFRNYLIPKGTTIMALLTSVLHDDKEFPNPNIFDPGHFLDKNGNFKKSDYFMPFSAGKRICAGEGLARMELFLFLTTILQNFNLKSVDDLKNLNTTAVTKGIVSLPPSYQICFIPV

[2] = molecular target: T2, OAT3 (Homo sapiens, UniProt Q8TCC7); assay: Transporter inhibition, transporter-expressing in vitro system; conditions: for Potential for interaction? (transporter inhibitor), OAT3: predicted @ 600 mg BID
T2 sequence (Q8TCC7 1-542): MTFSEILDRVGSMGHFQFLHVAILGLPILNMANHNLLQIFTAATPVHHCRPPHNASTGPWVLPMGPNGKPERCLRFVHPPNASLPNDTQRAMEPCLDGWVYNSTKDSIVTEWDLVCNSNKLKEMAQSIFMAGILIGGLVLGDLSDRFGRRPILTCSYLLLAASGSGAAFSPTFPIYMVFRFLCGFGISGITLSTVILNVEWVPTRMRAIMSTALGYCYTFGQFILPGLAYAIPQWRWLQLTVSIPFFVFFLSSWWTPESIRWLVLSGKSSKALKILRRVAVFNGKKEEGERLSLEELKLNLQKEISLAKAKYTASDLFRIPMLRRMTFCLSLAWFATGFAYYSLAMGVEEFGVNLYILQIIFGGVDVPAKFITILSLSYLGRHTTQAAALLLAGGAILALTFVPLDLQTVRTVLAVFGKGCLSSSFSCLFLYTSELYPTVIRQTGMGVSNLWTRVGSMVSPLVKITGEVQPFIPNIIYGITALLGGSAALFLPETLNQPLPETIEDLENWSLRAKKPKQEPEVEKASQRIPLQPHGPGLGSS
Description: (§1) The competitive inhibition of specific transporters was investigated for RVT-1201 and KAR5417 in transporter-expressing in vitro systems (XT158039). Inhibition of P-gp was evaluated using a Caco-2 cell line with digoxin as probe substrate. Inhibition of OATP1B1 and OATP1B3 was evaluated using a HEK293 cell line expressing these transporters with estradiol-17β-glucuronide as probe substrate. In addition, inhibition of other transporters was also investigated (BCRP, OAT1, OAT3, OCT2, MATE1, MATE2-K). The IC50 estimates for P-gp (RVT-1201) and OATP1B1/3 (RVT-1201 and KAR5417) supported further evaluation of inhibition DDI potential using the PBPK model. For each IC50 estimate, substrate concentration and Km were used to estimate RVT-1201 and KAR5417 Ki with Equation 1 (Cheng and Prusoff, 1973).

[3] = molecular target: T3, OATP1B3 (Homo sapiens, UniProt Q9NPD5); assay: Transporter inhibition, HEK293 cells, estradiol-17β-glucuronide probe; conditions: for Calculated Values, R-value, OATP1B3 / Potential for interaction? (transporter inhibitor), OATP1B3: predicted @ 600 mg BID; for IC50: read-out: In vitro IC50, OATP1B3
T3 construct: expressed in transfected cells; host or cells: HEK293
T3 sequence (Q9NPD5 1-702): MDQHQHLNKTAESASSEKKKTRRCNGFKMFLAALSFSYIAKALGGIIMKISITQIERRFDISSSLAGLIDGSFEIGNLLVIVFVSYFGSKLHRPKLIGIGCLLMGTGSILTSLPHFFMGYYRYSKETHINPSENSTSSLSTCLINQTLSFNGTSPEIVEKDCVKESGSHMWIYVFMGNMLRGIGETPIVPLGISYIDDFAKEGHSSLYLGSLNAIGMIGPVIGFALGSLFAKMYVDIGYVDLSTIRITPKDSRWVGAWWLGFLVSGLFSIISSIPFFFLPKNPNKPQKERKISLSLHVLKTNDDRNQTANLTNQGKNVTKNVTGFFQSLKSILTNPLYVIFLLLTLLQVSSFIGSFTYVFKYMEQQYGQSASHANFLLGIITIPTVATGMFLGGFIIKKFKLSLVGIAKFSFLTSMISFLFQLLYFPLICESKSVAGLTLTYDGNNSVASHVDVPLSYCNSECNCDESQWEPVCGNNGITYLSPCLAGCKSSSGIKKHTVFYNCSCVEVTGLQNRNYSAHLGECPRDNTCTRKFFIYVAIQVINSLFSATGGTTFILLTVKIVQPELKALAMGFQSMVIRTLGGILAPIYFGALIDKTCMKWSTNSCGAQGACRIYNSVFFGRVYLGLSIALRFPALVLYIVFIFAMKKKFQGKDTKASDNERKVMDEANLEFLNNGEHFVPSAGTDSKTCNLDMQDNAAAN
Description: as §1

[4] = molecular target: T4, OATP1B1 (Homo sapiens, UniProt Q9Y6L6); assay: as above; conditions: for Calculated Values, R-value, OATP1B1 / Potential for interaction? (transporter inhibitor), OATP1B1: predicted @ 600 mg BID; for IC50: read-out: In vitro IC50, OATP1B1
T4 construct: expressed in transfected cells; host or cells: HEK293
T4 sequence (Q9Y6L6 1-691): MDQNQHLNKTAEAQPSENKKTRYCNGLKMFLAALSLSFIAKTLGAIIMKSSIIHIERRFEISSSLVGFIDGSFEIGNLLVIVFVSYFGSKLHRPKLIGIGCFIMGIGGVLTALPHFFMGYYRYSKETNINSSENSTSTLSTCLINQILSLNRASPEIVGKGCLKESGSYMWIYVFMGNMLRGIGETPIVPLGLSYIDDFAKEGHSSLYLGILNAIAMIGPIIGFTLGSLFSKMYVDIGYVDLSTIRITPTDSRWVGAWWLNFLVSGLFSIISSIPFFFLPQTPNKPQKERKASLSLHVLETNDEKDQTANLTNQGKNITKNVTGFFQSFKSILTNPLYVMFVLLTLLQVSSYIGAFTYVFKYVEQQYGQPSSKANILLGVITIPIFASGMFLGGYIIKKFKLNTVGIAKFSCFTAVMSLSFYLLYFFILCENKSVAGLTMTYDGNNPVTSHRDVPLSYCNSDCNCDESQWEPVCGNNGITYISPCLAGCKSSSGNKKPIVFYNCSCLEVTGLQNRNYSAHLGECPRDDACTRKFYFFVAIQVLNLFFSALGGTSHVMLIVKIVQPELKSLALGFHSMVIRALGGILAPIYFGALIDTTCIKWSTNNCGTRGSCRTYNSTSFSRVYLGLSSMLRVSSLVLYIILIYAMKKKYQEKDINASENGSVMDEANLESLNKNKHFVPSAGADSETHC
Description: as §1

In vitro substrate? CYP2C8 [1]	Potential for interaction? (transporter inhibitor), OAT3 [2]	Calculated Values, R-value, OATP1B3 [3]	Potential for interaction? (transporter inhibitor), OATP1B3 [3]	Calculated Values, R-value, OATP1B3 ([3]; listed as rodatristat ethyl)	IC50 [3] [µM]	Calculated Values, R-value, OATP1B1 [4]	Potential for interaction? (transporter inhibitor), OATP1B1 [4]	IC50 [4] [µM]	Structure (SMILES)	Inhibition of OAT3 (in words) [2]
No	No	<1.1	No	< 1.1	12.3	<1.1	No	25.4	CCOC(=O)[C@@H]1CC2(CCN(c3cc(O[C@H](c4ccc(Cl)cc4-c4ccccc4)C(F)(F)F)nc(N)n3)CC2)CN1 [Rodatristat ethyl, (S)-ethyl 8-(2-amino-6-((R)-1-(5-chloro-[1,1′-biphenyl]-2-yl)-2,2,2-trifluoroethoxy)pyrimidin-4-yl)-2,8-diazaspiro[4.5]decane-3-carboxylate]	Neither rodatristat ethyl nor rodatristat inhibited
No	No	1.26	Yes		1.93	<1.1	No	5.74	Nc1nc(O[C@H](c2ccc(Cl)cc2-c2ccccc2)C(F)(F)F)cc(N2CCC3(CC2)CN[C@H](C(=O)O)C3)n1 [Rodatristat, (S)-8-(2-amino-6-((R)-1-(5-chloro-[1,1′-biphenyl]-2-yl)-2,2,2-trifluoroeth-oxy)pyrimidin-4-yl)-2,8-diazaspiro[4.5]decane-3-carboxylic acid]	Neither rodatristat ethyl nor rodatristat inhibited
